Results published in patent publication US4239779A, “Use of phenylglyoxylic acids and derivatives thereof in the treatment of ischemic heart disease” (Pfizer Inc., priority 1979, dated 1980).

Assays:
anesthetized beagle dogs = assay: Myocardial blood flow and metabolism in fasted, closed-chest, anesthetized, electrically paced beagle dogs; type: in vivo, dog; conditions: 0.02 to 0.1 millimole/kg intravenously; in the presence and absence of isoprenaline
Experimental: The ability of compounds of formula (I) to reduce oxygen demand and affect the relative utilization of carbohydrate and lipid metabolites in the heart may be assessed by measuring the effect of the compounds on myocardial blood flow and metabolism in fasted, closed-chest, anesthetized beagle dogs, with cardiac catheterization to enable simultaneous sampling of coronary sinus and arterial blood to be carried out. Coronary sinus blood flow is measured by the hydrogen gas clearance technique described by Aukland et al (Circulation Res. 1964, 14, 164). The heart is paced electrically at 155 beats/min. and recordings of hemodynamic parameters (blood pressure, left ventricular pressure and the first derivative of the latter) are made continuously. Control measurements of coronary blood flow are made and samples of blood taken at 40 min. intervals, both in an untreated animal and in the same animal dosed with an infusion of isoprenaline ([…].), which both stimulates cardiac contraction and increases plasma free fatty acid levels. The compound of formula (I) is then administered intravenously and measurements are made and samples taken again, 40 minutes and 90 minutes later. The blood samples from the artery and coronary sinus are analyzed for oxyhemoglobin, pyruvate and free fatty acid (FFA) content, differences between those of the arterial and coronary sinus blood, when multiplied by coronary blood flow, being a measure of oxygen consumption, pyruvate uptake and FFA uptake by the myocardium respectively.

[1] = tested on: pyruvate dehydrogenase (PDH); assay: Proportion of active pyruvate dehydrogenase (PDHa/PDHt) in hearts of fat-fed rats after dosing; type: in vivo; conditions: rat heart
Experimental: (2) Rats fed on a high fat diet as in test (1) (a), are treated either with placebo or with the compound of formula (I), by subcutaneous or intravenous injection or by oral administration, and at various times after treatment the rat hearts are removed and homogenized, under conditions which minimize changes in the proportion of the pyruvate dehydrogenase enzyme which is present in the active form, as described by Whitehouse and Randle (Biochem. J. 1973, 134, 651). The total amount of the enzyme present (PDHt) and the amount which is present in the active form (PDHa) are assessed by a method similar to that described by Taylor et al (J. Biol. Chem. 1973, 248, 73). The fat-feeding process is found to depress the ratio PDHa/PDHt from a normal value of about 0.7 to a value in the range from 0.05 to 0.2.

| SMILES | myocardial blood flow (anesthetized beagle dogs) | myocardial oxygen consumption (anesthetized beagle dogs) | myocardial pyruvate uptake (anesthetized beagle dogs) | period of increased myocardial pyruvate uptake after dosing (anesthetized beagle dogs) | PDHa/PDHt ratio at 1.5 hours ([1]; dose 0.6 mM/kg subcutaneous, placebo ratio 0.12) | PDHa/PDHt ratio at 1.5 hours ([1]; dose 1.2 mM/kg subcutaneous, placebo ratios 0.11-0.24) |
| --- | --- | --- | --- | --- | --- | --- |
| O=C(O)C(=O)c1ccc(O)cc1 [OH, H, OH, p-hydroxyphenylglyoxylic acid] | increased | decreased | increases | at least 90 minutes |  |  |
| CSc1ccc(C(=O)C(=O)O)cc1 [SCH3, H, OH, p-(methylthio)phenylglyoxylic acid] |  |  |  |  | 0.24 | 0.47 |
